Test results from ChEMBL document CHEMBL1137013, “Discovery of (2R)-2-(3-{3-[(4-Methoxyphenyl)carbonyl]-2-methyl-6-(trifluoromethoxy)-1H-indol-1-yl}phenoxy)butanoic acid (MK-0533): a novel selective peroxisome proliferator-activated receptor gamma modulator for the treatment of type 2 diabetes mellitus with a reduced potential to increase plasma …” (J Med Chem, 2009).
Calls of active or inactive are those of the source. No cut-off for these calls is given here.

Assays:
Rattus norvegicus [1] = assay: Antidiabetic activity in obese insulin-resistant Zucker fa/fa rat assessed as decrease in plasma triglyceride level at 3 to 150 mg/kg, po once daily for 7 days; type: functional, organism-based
Rattus norvegicus [2] = assay: Toxicity in obese insulin-resistant Zucker fa/fa rat assessed as increase in extracellular fluid volume at 3 to 150 mg/kg, po once daily for 7 days measured after 24 hrs by bioelectrical impedance analysis; type: organism-based; set-up: dose 3-150 mg/kg, route oral; settings: in vivo
[3] = biological target: T1, Peroxisome proliferator-activated receptor gamma (Homo sapiens, UniProt P37231)
T1 sequence (P37231 whole entry): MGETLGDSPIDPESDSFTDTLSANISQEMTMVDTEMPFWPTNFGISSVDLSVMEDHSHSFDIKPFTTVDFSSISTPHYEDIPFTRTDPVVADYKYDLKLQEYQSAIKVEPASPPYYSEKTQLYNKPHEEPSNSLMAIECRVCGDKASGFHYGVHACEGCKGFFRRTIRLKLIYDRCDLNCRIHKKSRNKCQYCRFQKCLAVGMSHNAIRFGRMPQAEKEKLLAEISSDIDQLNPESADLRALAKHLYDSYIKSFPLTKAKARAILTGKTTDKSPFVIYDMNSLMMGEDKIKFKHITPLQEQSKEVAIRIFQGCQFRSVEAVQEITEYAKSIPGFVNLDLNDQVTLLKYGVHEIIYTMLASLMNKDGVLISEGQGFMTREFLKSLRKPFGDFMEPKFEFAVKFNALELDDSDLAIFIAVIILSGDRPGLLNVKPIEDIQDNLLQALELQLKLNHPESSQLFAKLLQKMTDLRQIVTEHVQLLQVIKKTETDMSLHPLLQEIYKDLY
Description: Agonist activity at human recombinant PPARgamma expressed in COS1 cells co-expressing GAL4 assessed as transcriptional activity after 48 hrs by luciferase reporter gene assay

[4] = Plasma clearance in monkey; type: ADME, organism-based, Macaca mulatta; settings: rhesus monkey

For `CC[C@@H](Oc1cccc(-n2c(C)c(C(=O)c3ccc(OC)cc3)c3ccc(OC(F)(F)F)cc32)c1)C(=O)O` [MK-0533], the Activity (Rattus norvegicus [1]) was “Active”, the Activity (Rattus norvegicus [2]) was “Non-toxic” and the EC50 [3] was 2 nM. It also gave a clearance [4] of 10.1 mL/min/kg.
